Patent US20060134063A1, “Agents for proliferating pancreatic beta-cells of the islets of langerhans, agents for suppressing apoptosis of said cells, and screening of candidate compounds for these agents” (priority 2000, published 2006)

Columns and labels:
[1] = tested on: 5'-flanking region of the rat Reg gene; assay: Reg promoter/luciferase reporter assay in RINm5F cells; format: cell-based
Method: A 2,303-bp fragment containing the 5′-flanking region of Reg gene was fused to the luciferase gene and transfected into RINm5F β-cells.
Specifically, luciferase reporter gene constructs were generated as described in Miyashita, H. et al. (1994) Biochim. Biophys. Acta, 1219, 241-243. RINm5F cells were seeded at 1×10^5 cells/well in 24-well dish. After 48 h, 3.0 μg of test plasmid and 0.2 μg of pCMV-SPORT β-gal (Life Technologies, Inc.) were transfected by lipofection (Felgner, J. H. et al. (1994) J. Biol. Chem., 269, 2550-2561) using DMRIE-C™ (Life Technologies, Inc.). After 24 h, the medium of each dish was replaced with fresh medium containing stimulants and incubated further for 24 h. Cells were harvested in 1 ml of ice-cold phosphate-buffered saline (PBS), washed twice with PBS, and extracts were prepared in extraction buffer (0.1 M potassium phosphate, pH 6.8, 1 mM DTT). The protein concentration was determined using a Coomassie reagent kit (Pierce) and bovine serum albumin as a standard. Luciferase activity was determined by a chemiluminescence substrate using a Pica Gene™ Luminescence Kit (Toyo Ink Mfg. Co, Ltd., Tokyo, Japan). β-galactosidase activity was determined using Aurora™ GAL-XE (ICN).

HGF gene = assay: RT-PCR of HGF gene expression in RINm5F cells; format: cell-based, rat; conditions: 10 mM nicotinamide; 24 h
Method: Rat insulinoma RINm5F cells were seeded at 1.5×10^5 cells/ml in a 25-cm^2 culture bottle. […] After a further 24-h incubation, total RNA was prepared using cesium trifluoroacetate as described in […]. et al. (1993) J. Biol. Chem. 268, 26052-26054 and Akiyama, T. et al. (2001) Proc. Natl. Acad. Sci. USA 98, 48-53. RT-PCR was performed using this RNA as a template and primers corresponding to nucleotides 1,556-1,575 and 2,208-2,227 of rat HGF mRNA (Okajima, A. et al. (1990) Eur. J. Biochem. 193, 375-381) as described in Sun, W. et al. (1999) Brain Res. 851, 46-53, to detect the expression of HGF gene. PCR was carried out by a two-step protocol as described in Sun, W. et al. (1999) Brain Res. 851, 46-53, with 33 cycles of the first step [denaturation (95° C., 40 s), primer annealing (60° C., 40 s), and primer elongation (72° C., 1 min)] followed by the 5 cycles of the second step [denaturation ([…], 40 s), primer annealing (60° C., 40 s), and primer elongation (72° C., 1 min)].

[2] = nicotinamide added to IL-6/dexamethasone

In the case of NC(=O)c1cccnc1 [nicotinamide], the “luciferase activity (result in words)” value ([1]; 2,303-bp Reg 5'-flanking fragment, 24 h stimulation) is reported as “ineffective”, the “enhancement of IL-6/dexamethasone-induced transcription of Reg gene, "-70" construct” value [1, 2] is reported as “abolished” and the “enhancement of IL-6/dexamethasone-induced transcription of Reg gene, -2,303 to -81 deletions” value [1, 2] is reported as “the enhancement was observed”. The “HGF gene expression (RT-PCR), PARP inhibitor added to IL-6/dexamethasone” value (HGF gene) was “further enhanced HGF gene expression”.
